In the supplement of paper PMC13207355:

Legend:
Conditions in all cases: exposure time: 72 h
E13 [1] = patient-derived glioblastoma stem cells of classical subtype; assay: surviving fraction (nuclei count normalised to DMSO); higher = more cells surviving (less toxic)
E21 [2] = patient-derived glioblastoma stem cells of mesenchymal subtype; assay: as above
E28 [3] = patient-derived glioblastoma stem cells of classical subtype; assay: as above
E31 [4] = patient-derived glioblastoma stem cells of proneural subtype; assay: as above
E34 [5] = patient-derived glioblastoma stem cells of proneural subtype; assay: as above
E57 [6] = patient-derived glioblastoma stem cells of mesenchymal subtype; assay: as above
FT3469 [7] = normal neural stem cell line; assay: as above
E13 [8] = assay: phenotypic distance (Euclidean, principal components) from DMSO controls (arbitrary units); higher = stronger morphological change
E21 [9] = assay: as above
E28 [10] = assay: as above
E31 [11] = assay: as above
E34 [12] = assay: as above
E57 [13] = assay: as above
FT3469 [14] = assay: as above
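For phenotypic distance (Euclidean, principal components) from DMSO controls in this document: cell Painting imaging in 384-well plates, CellProfiler features reduced to at least 20 principal components, Euclidean distance versus same-plate DMSO vehicle wells (0.1% v/v), median over six images per well.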
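For surviving fraction (nuclei count normalised to DMSO) in this document: nuclei counted by high-content imaging of Hoechst-stained cells in laminin-coated 384-well plates, relative to 0.1% DMSO vehicle wells, with staurosporine as cell-death control.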

CC1CNc2c(cccc2S(=O)(=O)N[C@@H](CCCNC(=N)N)C(=O)N2CC[C@@H](C)C[C@@H]2C(=O)O)C1 (stereo partly drawn) [Argatroban]
surviving fraction (E13 [1]; 4.1 nM): 0.887
surviving fraction (E13 [1]; 12.3 nM): 0.726
surviving fraction (E13 [1]; 37 nM): 1.06
surviving fraction (E13 [1]; 111.1 nM): 0.787
surviving fraction (E13 [1]; 333.3 nM): 1.03
surviving fraction (E13 [1]; 1000 nM): 0.955
surviving fraction (E13 [1]; 3000 nM): 1.04
surviving fraction (E21 [2]; 4.1 nM): 0.935
surviving fraction (E21 [2]; 12.3 nM): 0.953
surviving fraction (E21 [2]; 37 nM): 0.963
surviving fraction (E21 [2]; 111.1 nM): 0.778
surviving fraction (E21 [2]; 333.3 nM): 1.07
surviving fraction (E21 [2]; 1000 nM): 1.08
surviving fraction (E21 [2]; 3000 nM): 1.11
surviving fraction (E28 [3]; 4.1 nM): 0.975
surviving fraction (E28 [3]; 12.3 nM): 0.963
surviving fraction (E28 [3]; 37 nM): 0.877
surviving fraction (E28 [3]; 111.1 nM): 1.3
surviving fraction (E28 [3]; 333.3 nM): 1.01
surviving fraction (E28 [3]; 1000 nM): 1.14
surviving fraction (E28 [3]; 3000 nM): 1.16
surviving fraction (E31 [4]; 4.1 nM): 1.08
surviving fraction (E31 [4]; 12.3 nM): 0.893
surviving fraction (E31 [4]; 37 nM): 0.911
surviving fraction (E31 [4]; 111.1 nM): 0.95
surviving fraction (E31 [4]; 333.3 nM): 0.959
surviving fraction (E31 [4]; 1000 nM): 1.04
surviving fraction (E31 [4]; 3000 nM): 1.12
surviving fraction (E34 [5]; 4.1 nM): 1.04
surviving fraction (E34 [5]; 12.3 nM): 1.04
surviving fraction (E34 [5]; 37 nM): 0.976
surviving fraction (E34 [5]; 111.1 nM): 0.935
surviving fraction (E34 [5]; 333.3 nM): 1.05
surviving fraction (E34 [5]; 1000 nM): 1.13
surviving fraction (E34 [5]; 3000 nM): 0.923
surviving fraction (E57 [6]; 4.1 nM): 1.01
surviving fraction (E57 [6]; 12.3 nM): 1.03
surviving fraction (E57 [6]; 37 nM): 0.918
surviving fraction (E57 [6]; 111.1 nM): 1.04
surviving fraction (E57 [6]; 333.3 nM): 1.04
surviving fraction (E57 [6]; 1000 nM): 1.01
surviving fraction (E57 [6]; 3000 nM): 0.888
surviving fraction (FT3469 [7]; 4.1 nM): 0.74
surviving fraction (FT3469 [7]; 12.3 nM): 0.878
surviving fraction (FT3469 [7]; 37 nM): 0.961
surviving fraction (FT3469 [7]; 111.1 nM): 0.906
surviving fraction (FT3469 [7]; 333.3 nM): 1.09
surviving fraction (FT3469 [7]; 1000 nM): 0.99
surviving fraction (FT3469 [7]; 3000 nM): 0.886
phenotypic distance (E13 [8]; 4.1 nM): 0.936
phenotypic distance (E13 [8]; 12.3 nM): 1.03
phenotypic distance (E13 [8]; 37 nM): 0.706
phenotypic distance (E13 [8]; 111.1 nM): 0.818
phenotypic distance (E13 [8]; 333.3 nM): 0.637
phenotypic distance (E13 [8]; 1000 nM): 0.667
phenotypic distance (E13 [8]; 3000 nM): 0.543
phenotypic distance (E21 [9]; 4.1 nM): 1.43
phenotypic distance (E21 [9]; 12.3 nM): 0.727
phenotypic distance (E21 [9]; 37 nM): 1.18
phenotypic distance (E21 [9]; 111.1 nM): 0.876
phenotypic distance (E21 [9]; 333.3 nM): 1.26
phenotypic distance (E21 [9]; 1000 nM): 1.01
phenotypic distance (E21 [9]; 3000 nM): 1.26
phenotypic distance (E28 [10]; 4.1 nM): 0.894
phenotypic distance (E28 [10]; 12.3 nM): 0.602
phenotypic distance (E28 [10]; 37 nM): 0.844
phenotypic distance (E28 [10]; 111.1 nM): 0.794
phenotypic distance (E28 [10]; 333.3 nM): 0.356
phenotypic distance (E28 [10]; 1000 nM): 0.549
phenotypic distance (E28 [10]; 3000 nM): 0.893
phenotypic distance (E31 [11]; 4.1 nM): 0.911
phenotypic distance (E31 [11]; 12.3 nM): 0.664
phenotypic distance (E31 [11]; 37 nM): 0.863
phenotypic distance (E31 [11]; 111.1 nM): 0.601
phenotypic distance (E31 [11]; 333.3 nM): 2.25
phenotypic distance (E31 [11]; 1000 nM): 0.919
phenotypic distance (E31 [11]; 3000 nM): 0.822
phenotypic distance (E34 [12]; 4.1 nM): 0.682
phenotypic distance (E34 [12]; 12.3 nM): 0.667
phenotypic distance (E34 [12]; 37 nM): 0.842
phenotypic distance (E34 [12]; 111.1 nM): 0.535
phenotypic distance (E34 [12]; 333.3 nM): 0.743
phenotypic distance (E34 [12]; 1000 nM): 1.04
phenotypic distance (E34 [12]; 3000 nM): 1.26
phenotypic distance (E57 [13]; 4.1 nM): 0.489
phenotypic distance (E57 [13]; 12.3 nM): 0.826
phenotypic distance (E57 [13]; 37 nM): 0.498
phenotypic distance (E57 [13]; 111.1 nM): 0.438
phenotypic distance (E57 [13]; 333.3 nM): 0.495
phenotypic distance (E57 [13]; 1000 nM): 0.711
phenotypic distance (E57 [13]; 3000 nM): 0.963
phenotypic distance (FT3469 [14]; 4.1 nM): 3.82
phenotypic distance (FT3469 [14]; 12.3 nM): 1.39
phenotypic distance (FT3469 [14]; 37 nM): 0.709
phenotypic distance (FT3469 [14]; 111.1 nM): 0.753
phenotypic distance (FT3469 [14]; 333.3 nM): 0.744
phenotypic distance (FT3469 [14]; 1000 nM): 0.391
phenotypic distance (FT3469 [14]; 3000 nM): 1.07
